≈ marks a conversion by molar mass, not a printed value. Marks after values point to notes of the source that are not given here.
Tests used:
[1] = Beagle, in vivo, po; for Dog F % (suspension): pH 2
[2] = physchem; conditions: 25 °C, thermodynamic from solid
[3] = 1.0% DMSO, 24-hour incubation at ambient temperature, maximum theoretical compound concentration 100 μM

Question: Which “Dog F % (solution)” value [1] does the source give for `Cc1cc(C)c(C(C)(C)CC(=O)N(c2nn(CC(F)(F)F)c3c(-c4ccc(C#CC(C)(C)S(C)(=O)=O)nc4[C@H](Cc4cc(F)cc(F)c4)NC(=O)Cn4nc(C(F)(F)F)c5c4C(F)(F)[C@@H]4C[C@H]54)ccc(Cl)c23)S(C)(=O)=O)c(OP(=O)(O)O)c1` [Compound 48, 2-(4-(N-(4-chloro-7-(2-((S)-1-(2-03bS,4aR)-5,5-difluoro (trifluoromethyl)-3b,4,4a,5-tetrahydro-1H-cyclopropa[3,4]cyclopenta[1,2-c]pyrazolyl)acetamido)-2-(3,5-difluorophenyl)ethyl)-6-(3-methyl-3-(methylsulfonyl)but-1-ynyl)pyridin-3-yl)-1-(2,2,2-trifluoroethyl)-1H-indazol-3-yl)methylsulfonamido)-2-methyl oxobutan-2-yl)-3,5-dimethylphenyl dihydrogen phosphate] here?
Answer: 60^b %

Question: And the “Dog F % (suspension)” value [1]?
Answer: 16%

Question: And the solubility ([2]; fassif)?
Answer: 777 µg/mL

Question: And the solubility ([2]; fessif)?
Answer: 948 µg/mL

Question: With `Cc1cc(CP(=O)(O)O)c(C(C)(C)CC(=O)N(c2nn(CC(F)(F)F)c3c(-c4ccc(C#CC(C)(C)S(C)(=O)=O)nc4[C@H](Cc4cc(F)cc(F)c4)NC(=O)Cn4nc(C(F)(F)F)c5c4C(F)(F)[C@@H]4C[C@H]54)ccc(Cl)c23)S(C)(=O)=O)c(OP(=O)(O)O)c1` [Compound 55, (2-(4-(N-(4-chloro-7-(2-((S)-1-(2-((3bS,4aR)-5,5-difluoro-3-(trifluoromethyl)-3b,4,4a,5-tetrahydro-1H-cyclopropa[3,4]cyclopenta[1,2-c]pyrazol-1-yl)acetamido)-2-(3,5-difluorophenyl)ethyl)-6-(3-methyl-3-(methylsulfonyl)but-1-yn-1-yl)pyridin-3-yl)-1-(2,2,2-trifluoroethyl)-1H-indazol-3-yl)methylsulfonamido)-2-methyl-4-oxobutan-2-yl)-5-methyl-3-(phosphonooxy)benzyl)phosphonic acid] as the compound, how does the “Dog F % (solution)” value [1] read?
Answer: 33 ^c %

Question: What about the solubility ([2]; fassif) of the same compound?
Answer: > 10000 µg/mL

Question: For `Cc1cc(CC(=O)O)cc(OP(=O)(O)O)c1C(C)(C)CC(=O)N(c1nn(CC(F)(F)F)c2c(-c3ccc(C#CC(C)(C)S(C)(=O)=O)nc3[C@H](Cc3cc(F)cc(F)c3)NC(=O)Cn3nc(C(F)(F)F)c4c3C(F)(F)[C@@H]3C[C@H]43)ccc(Cl)c12)S(C)(=O)=O` [Compound 47, 2-(4-(4-(N-(4-chloro-7-(2-((S)-1-(2-((3bS,4aR)-5,5-difluoro (trifluoromethyl)-3b,4,4a,5-tetrahydro-1H-cyclopropa[3,4]cyclopenta[1,2-c]pyrazolyl)acetamido)-2-(3,5-difluorophenyl)ethyl)-6-(3-methyl-3-(methylsulfonyl)but-1-ynyl)pyridin-3-yl)-1-(2,2,2-trifluoroethyl)-1H-indazol-3-yl)methylsulfonamido)-2-methyloxobutan-2-yl)-3-methyl-5-(phosphonooxy)phenyl)acetic acid], which “Dog F % (suspension)” value [1] is on record?
Answer: 7%

Question: What about the solubility ([2]; fassif) of the same compound?
Answer: 1420 µg/mL (≈ 1100 µM)

Question: And the solubility ([2]; fessif)?
Answer: 226 µg/mL (≈ 174 µM)

Question: What does the source list for `CC(C)(CC(=O)N(c1nn(CC(F)(F)F)c2c(-c3ccc(C#CC(C)(C)S(C)(=O)=O)nc3[C@H](Cc3cc(F)cc(F)c3)NC(=O)Cn3nc(C(F)(F)F)c4c3C(F)(F)[C@@H]3C[C@H]43)ccc(Cl)c12)S(C)(=O)=O)CN(CC(=O)O)C(=O)OCOP(=O)(O)O` [Compound 42, N-(4-(N-(4-chloro-7-(2-((S)-1-(2-((3bS,4aR)-5,5-difluoro (trifluoromethyl)-3b,4,4a,5-tetrahydro-1H-cyclopropa[3,4]cyclopenta[1,2-c]pyrazolyl)acetamido)-2-(3,5-difluorophenyl)ethyl)-6-(3-methyl-3-(methylsulfonyl)but-1-ynyl)pyridin-3-yl)-1-(2,2,2-trifluoroethyl)-1H-indazol-3-yl)methylsulfonamido)-2,2-dimethyl-4-oxobutyl)-N-(((phosphonooxy)methoxy)carbonyl)glycine]?
Answer: pH 2 solubility ([3]; 0.1N HCL): 1 μM; pH 7 solubility ([3]; 1×PBS buffer (pH 7.4)): 100 μM; Dog F % (suspension) [1]: 9%
